7 compounds from US10800789B2, “Antiviral compounds” (Gilead Pharmasset LLC, priority 2012, dated 2020) can be followed below.

Like-named read-outs stand apart in the source and are kept apart here.

The subject of test [1] is NS5A chimeric genotype 1b Con1 replicon with genotype 4a ED43 strain NS5A gene. Briefly: Replicon assay, genotype 4a NS5A chimera. It counts as cell-based, HCV. The note with it: Hepatitis C virus. (In general: A replicon is a self-replicating genome or part of one, used to study replication in cells.)
Test [2] has as its system NS5A chimeric genotype 2a JFH-1 replicon with genotype 2a J6 strain NS5A gene (M31 present). Briefly: Replicon assay, genotype 2a J6 NS5A chimera. It counts as cell-based, HCV. The settings on record: Hepatitis C virus. On the procedure: (§1) Evaluation of Cell-Based Anti-HCV Activity:
(§2) Antiviral potency (EC50) was determined using a Renilla luciferase (RLuc)-based HCV replicon reporter assay. To perform the assay for genotype 1 and 2a JFH-1, stable HCV 1a RLuc replicon cells (harboring a dicistronic genotype 1a H77 replicon that encodes a RLuc reporter), stable HCV 1b RLuc replicon cells (harboring a dicistronic genotype 1b Con1 replicon that encodes a RLuc reporter), or stable HCV 2a JFH-1 Rluc replicon cells (harboring a dicistronic genotype 2a JFH-1 replicon that encodes a RLuc reporter; with L31 present in NS5A) were dispensed into 384-well plates for EC50 assays. To perform the assay for genotype 2a (with M31 present in NS5A) or 2b, NS5A chimeric genotype 2a JFH-1 replicons that encodes a RLuc-Neo reporter and either genotype 2a J6 strain NS5A gene or genotype 2b MD2b-1 strain NS5A gene (both with M31 present) respectively, were either transiently transfected (t) into Huh-Lunet cells or were established as stably replicating replicon cells (s) is provided. Either cells were dispensed into 384-well plates for EC50 assays. To perform the assay for genotype 3 and 4, NS5A chimeric genotype 1b Con1 replicons that encodes a Pi-RLuc reporter and either genotype 3a S52 strain NS5A gene or genotype 4a ED43 strain NS5A gene respectively, were transiently transfected (t) into Huh-Lunet cells, which were subsequently dispensed into 384-well plates. Compounds were dissolved in DMSO at a concentration of 10 mM and diluted in DMSO either manually or using an automated pipeting instrument. Serially 3-fold diluted compounds were either manually mixed with cell culture media and added to the seeded cells or directly added to the cells using an automated instrument. DMSO was used as a negative (solvent; no inhibition) control, and the protease inhibitor ITMN-191 was included at a concentration>100×EC50 as a positive control. 72 hours later, cells were lysed and Renilla luciferase activity quantified as recommended by the manufacturer (Promega-Madison, Wis.). Non-linear regression was performed to calculate EC50 values.

Test [3] deals with NS5A chimeric genotype 1b Con1 replicon with genotype 3a S52 strain NS5A gene. Briefly: Replicon assay, genotype 3a NS5A chimera. It counts as cell-based, HCV. The note with it: Hepatitis C virus.
Test [4] relates to stable HCV 2a JFH-1 Rluc replicon cells (L31 present in NS5A). In words: Renilla luciferase HCV replicon reporter assay, genotype 2a JFH-1. It counts as cell-based. The settings on record: Hepatitis C virus. As for the experimental part:
as §1, §2

Test [5] deals with stable HCV 1b RLuc replicon cells (dicistronic genotype 1b Con1 replicon). In words: Renilla luciferase HCV replicon reporter assay, genotype 1b. It counts as cell-based. The note with it: Hepatitis C virus, 72 h, stable 1b Con1 RLuc replicon cells, 72 hours; read-out: 1b. On the procedure:
as §1, §2

The test system of test [6] is NS5A chimeric genotype 2a JFH-1 replicon with genotype 2b MD2b-1 strain NS5A gene (M31 present). In words: Replicon assay, genotype 2b NS5A chimera. The format is cell-based, HCV. The note with it: Hepatitis C virus. On the procedure: as §1, §2
For test [7], the system named is stable HCV 1a RLuc replicon cells (dicistronic genotype 1a H77 replicon). In words: Renilla luciferase HCV replicon reporter assay, genotype 1a. It counts as cell-based. The settings on record: Hepatitis C virus, 72 h, stable 1a H77 RLuc replicon cells. As for the experimental part: as §1, §2
Where [8] appears, read: read-out: 4a (s) (nM), genotype 4a NS5A chimeric replicon, stable replicon cells (s).
Where [9] appears, read: read-out: 4a (s), (s), activity range.
[10] abbreviates: read-out: 2a J6 (t) (nM), genotype 2a J6 NS5A chimeric replicon (M31), transiently transfected (t) into Huh-Lunet cells.
[11] abbreviates: read-out: 2a J6 (t), transiently transfected (t) into Huh-Lunet cells, activity range.
Setting [12] is: read-out: 3a (s) (nM), genotype 3a NS5A chimeric replicon, stable replicon cells (s).
The mark [13] stands for this setting: read-out: 3a (s), (s), activity range.
The mark [14] stands for this setting: read-out: 2a JFH (nM), genotype 2a JFH-1 replicon (L31 in NS5A), stable cells.
Where [15] appears, read: read-out: 2a JFH, stable 2a JFH-1 Rluc replicon cells, L31 in NS5A, activity range.
[16] abbreviates: 2BS, read-out: 2b (s), stably replicating replicon cells (s), activity range.
The mark [17] stands for this setting: read-out: 2b (s) (nM), genotype 2b MD2b-1 NS5A chimeric replicon (M31), stably replicating replicon cells (s).

As to `COC(=O)N[C@H](C(=O)N1C[C@@H](C)C[C@H]1c1ncc(-c2ccc3c(c2)COc2cc4c(ccc5nc([C@@H]6CC[C@H](C)N6C(=O)[C@@H](NC(=O)OC)[C@@H](C)OC)[nH]c54)cc2-3)[nH]1)[C@@H](C)OC` [DZ, Methyl [(2S,3R)-3-methoxy-1-{(2S,5S)-2-[9-(2-{(2S,5S)-1-[N-(methoxycarbonyl)-O-methyl-L-threonyl]-4-methylpyrrolidin-2-yl}-1H-imidazol-5-yl)-1,11-dihydroisochromeno[4′,3′:6,7]naphtho[1,2-d]imidazol-2-yl]-5-methylpyrrolidin-1-yl}-1-oxobutan-2-yl]carbamate], the EC50 in test [1] (setting [8]) is 0.02 nM; in test [1] (setting [9]), below 0.1 nM; in test [2] (setting [10]), 0.054 nM; in test [2] (setting [11]), below 0.1 nM; in test [3] (setting [12]), 0.089 nM; in test [3] (setting [13]), below 0.1 nM. Also, the EC50 in test [4] (setting [14]) is 0.016 nM; in test [4] (setting [15]) it was below 0.1 nM; in test [5], 0.035 nM; in test [6] (setting [16]) it was 0.1 to 0.999 nM; in test [6] (setting [17]), 0.173 nM; in test [6] (read-out: 2b (t) (nM), genotype 2b MD2b-1 NS5A chimeric replicon (M31), transiently transfected (t)), 0.072 nM. Moreover, the EC50 in test [6] (read-out: 2b (t), transiently transfected (t) into Huh-Lunet cells, activity range) is below 0.1 nM; in test [7], 0.021 nM; in test [7] (activity range), below 0.1 nM.
Take `CC[C@H](C)[C@H](NC(=O)OC)C(=O)N1[C@@H](C)CC[C@H]1c1ncc(-c2ccc3c(c2)COc2cc4c(ccc5nc([C@@H]6CC[C@H](C)N6C(=O)[C@@H](NC(=O)OC)[C@@H](C)CC)[nH]c54)cc2-3)[nH]1` [EC, Methyl {(2S,3S)-1-[(2S,5S)-2-(9-{2-[(2S,5S)-1-{(2S,3S)-2-[(methoxycarbonyl)amino]-3-methylpentanoyl}-5-methylpyrrolidin-2-yl]-1H-imidazol-5-yl}-1,11-dihydroisochromeno[4′,3′:6,7]naphtho[1,2-d]imidazol-2-yl)-5-methylpyrrolidin-1-yl]-3-methyl-1-oxopentan-2-yl}carbamate]: the EC50 in test [1] (setting [8]) was 0.004 nM; in test [1] (setting [9]), below 0.1 nM; in test [2] (setting [10]), 0.429 nM; in test [2] (setting [11]), 0.1 to 0.999 nM; in test [3] (setting [12]), 0.029 nM; in test [3] (setting [13]), below 0.1 nM. For the same compound, the EC50 in test [4] (setting [14]) was 0.015 nM; in test [4] (setting [15]), below 0.1 nM; in test [5], 0.017 nM; in test [6] (setting [16]), 0.1 to 0.999 nM; in test [6] (setting [17]), 0.4 nM; in test [7], 0.008 nM. The same compound showed an EC50 in test [7] (activity range) below 0.1 nM.
Take `COC(=O)N[C@H](C(=O)N1[C@@H](C)CC[C@H]1c1ncc(-c2ccc3c(c2)COc2cc4c(ccc5nc([C@@H]6C[C@H](C)CN6C(=O)[C@@H](NC(=O)OC)[C@H](C)OC)[nH]c54)cc2-3)[nH]1)C(C)C` [FU, Methyl {(2S)-1-[(2S,5S)-2-(5-{2-[(2S,4S)-1-{(2S,3S)-3-methoxy-2-[(methoxycarbonyl)amino]butanoyl}-4-methylpyrrolidin-2-yl]-1,11-dihydroisochromeno[4′,3′:6,7]naphtho[1,2-d]imidazol-9-yl}-1H-imidazol-2-yl)-5-methylpyrrolidin-1-yl]-3-methyl-1-oxobutan-2-yl}carbamate]: the EC50 was 0.018 nM in test [1] (setting [8]); below 0.1 nM in test [1] (setting [9]); 0.337 nM in test [3] (setting [12]); 0.1 to 0.999 nM in test [3] (setting [13]); 0.021 nM in test [4] (setting [14]); below 0.1 nM in test [4] (setting [15]). Further, the EC50 in test [5] was 0.032 nM; in test [6] (setting [16]), 0.1 to 0.999 nM; in test [6] (setting [17]), 0.347 nM; in test [7], 0.028 nM; in test [7] (activity range), below 0.1 nM.
For `COC[C@H]1C[C@@H](c2ncc(-c3ccc4c(c3)COc3cc5c(ccc6nc([C@@H]7CC[C@H](C)N7C(=O)[C@@H](NC(=O)OC)C(C)C)[nH]c65)cc3-4)[nH]2)N(C(=O)[C@@H](NC(=O)OC)C2CCOCC2)C1` [GI, Methyl [(2S)-1-{(2S,4S)-2-[9-(2-{(2S,5S)-1-[(2S)-2-[(methoxycarbonyl)amino]-2-(tetrahydro-2H-pyran-4-yl)acetyl]-4-(methoxymethyl)pyrrolidin-2-yl}-1H-imidazol-5-yl)-1,11-dihydroisochromeno[4′,3′:6,7]naphtho[1,2-d]imidazol-2-yl]-5-methylpyrrolidin-1-yl}-3-methyl-1-oxobutan-2-yl]carbamate], the EC50 in test [1] (setting [8]) is 0.022 nM; in test [1] (setting [9]) it was below 0.1 nM; in test [3] (setting [12]), 0.126 nM; in test [3] (setting [13]), 0.1 to 0.999 nM; in test [4] (setting [14]), 0.025 nM; in test [4] (setting [15]) it was below 0.1 nM. The EC50 in test [5] was 0.064 nM; in test [6] (setting [16]), 0.1 to 0.999 nM; in test [6] (setting [17]) it was 0.193 nM; in test [7] it was 0.055 nM; in test [7] (activity range), below 0.1 nM.
`CC[C@H]1CC[C@@H](c2ncc(-c3ccc4c(c3)COc3cc5c(ccc6nc([C@@H]7CC[C@H](C)N7C(=O)[C@@H](NC(=O)OC)[C@@H](C)CC)[nH]c65)cc3-4)[nH]2)N1C(=O)C(NC(=O)OC)C1CCOCC1` (some centres unmarked) [IJ]: the EC50 in test [1] (setting [8]) was 0.036 nM; in test [1] (setting [9]), below 0.1 nM; in test [3] (setting [12]), 0.127 nM; in test [3] (setting [13]) it was 0.1 to 0.999 nM; in test [4] (setting [14]) it was 0.012 nM; in test [4] (setting [15]), below 0.1 nM. Besides, the EC50 was 0.029 nM in test [5]; 0.1 to 0.999 nM in test [6] (setting [16]); 0.212 nM in test [6] (setting [17]); 0.027 nM in test [7]; below 0.1 nM in test [7] (activity range).
On to `CC[C@H]1CC[C@@H](c2ncc(-c3ccc4c(c3)COc3cc5c(ccc6nc([C@@H]7CC[C@H](C)N7C(=O)[C@@H](NC(=O)OC)C7CCOCC7)[nH]c65)cc3-4)[nH]2)N1C(=O)[C@@H](NC(=O)OC)[C@@H](C)CC` [IM], for which the EC50 was 0.043 nM in test [1] (setting [8]); below 0.1 nM in test [1] (setting [9]); 0.15 nM in test [3] (setting [12]); 0.1 to 0.999 nM in test [3] (setting [13]); 0.016 nM in test [4] (setting [14]); below 0.1 nM in test [4] (setting [15]). The EC50 in test [5] was 0.04 nM; in test [6] (setting [16]) it was 0.1 to 0.999 nM; in test [6] (setting [17]), 0.212 nM; in test [7], 0.033 nM; in test [7] (activity range), below 0.1 nM.
For `CC[C@H]1CC[C@@H](c2nc3ccc4cc5c(cc4c3[nH]2)OCc2cc(-c3cnc([C@@H]4C[C@@H]6CCC[C@@H]6N4C(=O)[C@@H](NC(=O)OC)[C@@H](C)CC)[nH]3)ccc2-5)N1C(=O)[C@@H](NC(=O)OC)C1CCOCC1` [IX], the EC50 in test [1] (setting [8]) is 0.057 nM; in test [1] (setting [9]), below 0.1 nM; in test [3] (setting [12]), 0.246 nM; in test [3] (setting [13]), 0.1 to 0.999 nM; in test [4] (setting [14]), 0.024 nM; in test [4] (setting [15]), below 0.1 nM. Also, the EC50 in test [5] is 0.052 nM; in test [6] (setting [16]), 0.1 to 0.999 nM; in test [6] (setting [17]), 0.236 nM; in test [7] it was 0.035 nM; in test [7] (activity range), below 0.1 nM.
